This assay relates to MV-4-11 cells. Briefly: Gene expression microarray analysis (Affymetrix PrimeView) and GSEA. Details: RFU PODN (11730768_x_at) / Fold change /veh PODN (11730768_x_at) / RFU LINC00158 (11744669_a_at) / Fold change /veh LINC00158 (11744669_a_at) / RFU DUSP10 (11751237_a_at) / Fold change /veh DUSP10 (11751237_a_at) / RFU ID3 (11757404_x_at) / Fold change /veh ID3 (11757404_x_at) / RFU PLEKHG5 (11737974_s_at) / Fold change /veh PLEKHG5 (11737974_s_at) / RFU LRRC4B (11730491_at) / Fold change /veh LRRC4B (11730491_at) / RFU GIMAP4 (11747438_a_at) / Fold change /veh GIMAP4 (11747438_a_at) / RFU KRT8 (11758183_x_at) / Fold change /veh KRT8 (11758183_x_at) / RFU CNN1 (11734310_a_at) / Fold change /veh CNN1 (11734310_a_at) / RFU VPS37D (11726825_at) / Fold change /veh VPS37D (11726825_at) / RFU C10orf10 (11716522_x_at) / Fold change /veh C10orf10 (11716522_x_at) / RFU KIR2DL2 /// KIR2DL4 /// KIR2DL5A /// KIR2DL5B /// KIR2DS1 /// KIR2DS2 /// KIR2DS3 /// KIR2DS4 /// KIR3DL3 /// KIR3DL3 /// KIR3DS1 (11738374_at) / Fold change /veh KIR2DL2 /// KIR2DL4 /// KIR2DL5A /// KIR2DL5B /// KIR2DS1 /// KIR2DS2 /// KIR2DS3 /// KIR2DS4 /// KIR3DL3 /// KIR3DL3 /// KIR3DS1 (11738374_at) / RFU C1QL1 (11718748_at) / Fold change /veh C1QL1 (11718748_at) / RFU TMPRSS4 (11747572_a_at) / Fold change /veh TMPRSS4 (11747572_a_at) / RFU HAMP (11756126_x_at) / Fold change /veh HAMP (11756126_x_at) / RFU RNFT2 (11725882_a_at) / Fold change /veh RNFT2 (11725882_a_at) / RFU NR4A2 (11747474_a_at) / Fold change /veh NR4A2 (11747474_a_at) / RFU ABCC12 (11746883_a_at) / Fold change /veh ABCC12 (11746883_a_at) / RFU TMEM136 (11760407_x_at) / Fold change /veh TMEM136 (11760407_x_at) / RFU CLDN22 /// WWC2 (11732394_at) / Fold change /veh CLDN22 /// WWC2 (11732394_at) / RFU HLA-DPB1 (11760878_x_at) / Fold change /veh HLA-DPB1 (11760878_x_at) / RFU SPINT1 (11716480_a_at) / Fold change /veh SPINT1 (11716480_a_at) / RFU GAP43 (11754022_s_at) / Fold change /veh GAP43 (11754022_s_at) / RFU A4GNT (11735810_at) / Fold change /veh A4GNT (11735810_at) / RFU PRB3 (11715151_x_at) / Fold change /veh PRB3 (11715151_x_at) / RFU TUBB4B (11761932_at) / Fold change /veh TUBB4B (11761932_at) / RFU CAPN14 (11732068_a_at) / Fold change /veh CAPN14 (11732068_a_at) / RFU TMCC2 (11721928_a_at) / Fold change /veh TMCC2 (11721928_a_at) / RFU IRGQ (11745062_a_at) / Fold change /veh IRGQ (11745062_a_at) / RFU FAM174B (11720279_a_at) / Fold change /veh FAM174B (11720279_a_at) / RFU TMPRSS4 (11748680_a_at) / Fold change /veh TMPRSS4 (11748680_a_at) / RFU FAM212B (11763350_a_at) / Fold change /veh FAM212B (11763350_a_at) / RFU PLEKHG5 (11743358_a_at) / Fold change /veh PLEKHG5 (11743358_a_at) / RFU ZSCAN30 (11745921_a_at) / Fold change /veh ZSCAN30 (11745921_a_at) / RFU CMKLR1 (11741424_a_at) / Fold change /veh CMKLR1 (11741424_a_at) / RFU LOC101060620 /// MAPK8IP1 (11723275_at) / Fold change /veh LOC101060620 /// MAPK8IP1 (11723275_at) / RFU SPTSSB (11747773_x_at) / Fold change /veh SPTSSB (11747773_x_at) / RFU PRSS12 (11739890_at) / Fold change /veh PRSS12 (11739890_at) / RFU BIN1 (11741810_x_at) / Fold change /veh BIN1 (11741810_x_at) / RFU WNT11 (11732464_a_at) / Fold change /veh WNT11 (11732464_a_at) / RFU C10orf10 (11716521_a_at) / Fold change /veh C10orf10 (11716521_a_at) / RFU C5orf56 (11738089_at) / Fold change /veh C5orf56 (11738089_at) / RFU CYB561 (11721691_x_at) / Fold change /veh CYB561 (11721691_x_at) / RFU ANKRD19P (11752326_a_at) / Fold change /veh ANKRD19P (11752326_a_at) / RFU OR2T12 /// OR2T33 /// OR2T8 (11738714_s_at) / Fold change /veh OR2T12 /// OR2T33 /// OR2T8 (11738714_s_at) / RFU VCAN (11748164_a_at) / Fold change /veh VCAN (11748164_a_at) / RFU JSRP1 (11732532_at) / Fold change /veh JSRP1 (11732532_at) / RFU KRTAP10-11 (11738290_x_at) / Fold change /veh KRTAP10-11 (11738290_x_at) / RFU MYO3A (11730013_a_at) / Fold change /veh MYO3A (11730013_a_at) / RFU EBF3 (11725865_a_at) / Fold change /veh EBF3 (11725865_a_at) / RFU CAMK2N1 (11719241_x_at) / Fold change /veh CAMK2N1 (11719241_x_at) / RFU C5orf56 (11738088_a_at) / Fold change /veh C5orf56 (11738088_a_at) / RFU OLFML3 (11715873_a_at) / Fold change /veh OLFML3 (11715873_a_at) / RFU LOC100653217 /// NTM (11731650_a_at) / Fold change /veh LOC100653217 /// NTM (11731650_a_at) / RFU MAPK11 (11762145_a_at) / Fold change /veh MAPK11 (11762145_a_at) / RFU FIZ1 (11724087_x_at) / Fold change /veh FIZ1 (11724087_x_at) / RFU OASL (11726364_x_at) / Fold change /veh OASL (11726364_x_at) / RFU SOX15 (11748057_x_at) / Fold change /veh SOX15 (11748057_x_at) / RFU CD79A (11719716_a_at) / Fold change /veh CD79A (11719716_a_at) / RFU HIST1H1D (11736915_at) / Fold change /veh HIST1H1D (11736915_at) / RFU CASKIN2 (11723855_a_at) / Fold change /veh CASKIN2 (11723855_a_at) / RFU LOC730098 (11760151_x_at) / Fold change /veh LOC730098 (11760151_x_at) / RFU OR4N2 (11742367_at) / Fold change /veh OR4N2 (11742367_at) / RFU PRRT2 (11749266_a_at) / Fold change /veh PRRT2 (11749266_a_at) / RFU SNX32 (11753110_a_at) / Fold change /veh SNX32 (11753110_a_at) / RFU CDHR5 (11726645_a_at) / Fold change /veh CDHR5 (11726645_a_at) / RFU RCAN1 (11760418_a_at) / Fold change /veh RCAN1 (11760418_a_at) / RFU FAM167A (11723789_a_at) / Fold change /veh FAM167A (11723789_a_at) / RFU FAM26E (11764081_at) / Fold change /veh FAM26E (11764081_at) / RFU ISYNA1 (11749810_s_at) / Fold change /veh ISYNA1 (11749810_s_at) / RFU ACY1 (11761880_at) / Fold change /veh ACY1 (11761880_at) / RFU 11764098_at / Fold change /veh 11764098_at / RFU SAMD14 (11745864_x_at) / Fold change /veh SAMD14 (11745864_x_at) / RFU NPB (11741838_a_at) / Fold change /veh NPB (11741838_a_at) / RFU TMPRSS6 (11731388_a_at) / Fold change /veh TMPRSS6 (11731388_a_at) / RFU KRTAP10-2 (11738614_at) / Fold change /veh KRTAP10-2 (11738614_at) / RFU ARHGAP8 /// PRR5-ARHGAP8 (11727945_x_at) / Fold change /veh ARHGAP8 /// PRR5-ARHGAP8 (11727945_x_at) / RFU KRTAP5-7 /// NADSYN1 (11734609_at) / Fold change /veh KRTAP5-7 /// NADSYN1 (11734609_at) / RFU RASL12 (11751679_a_at) / Fold change /veh RASL12 (11751679_a_at) / RFU CDKN2B (11736163_a_at) / Fold change /veh CDKN2B (11736163_a_at) / RFU PRF1 (11729649_at) / Fold change /veh PRF1 (11729649_at) / RFU, ZNF638 /// ZNF638-IT1 / Fold change vs veh, ZNF638 /// ZNF638-IT1 / RFU, PANK3 / Fold change vs veh, PANK3 / RFU, SH3YL1 / Fold change vs veh, SH3YL1 / RFU, ZEB2 / Fold change vs veh, ZEB2 / RFU, NRIP1 / Fold change vs veh, NRIP1 / RFU, PTTG1IP / Fold change vs veh, PTTG1IP / RFU, CAPN2 / Fold change vs veh, CAPN2 / RFU, MED14 / Fold change vs veh, MED14 / RFU, SNORA58 / Fold change vs veh, SNORA58 / RFU, C1orf63 / Fold change vs veh, C1orf63 / RFU, LRRFIP1 / Fold change vs veh, LRRFIP1 / RFU, NDUFAF7 / Fold change vs veh, NDUFAF7 / RFU, SLC12A2 / Fold change vs veh, SLC12A2 / RFU, IBTK / Fold change vs veh, IBTK / RFU, ESF1 / Fold change vs veh, ESF1 / Fold change vs veh, TMEM50B / RFU, TAOK1 / Fold change vs veh, TAOK1 / RFU, ACBD3 / Fold change vs veh, ACBD3 / RFU, TMA16 / Fold change vs veh, TMA16 / RFU, RWDD3 / Fold change vs veh, RWDD3 / RFU, BCAT1 / Fold change vs veh, BCAT1 / RFU, EDEM3 / Fold change vs veh, EDEM3 / RFU, TMEM33 / Fold change vs veh, TMEM33 / RFU, WDR75 / Fold change vs veh, WDR75 / RFU, AHCTF1 / Fold change vs veh, AHCTF1 / RFU, TFRC / Fold change vs veh, TFRC / RFU, ZDHHC17 / Fold change vs veh, ZDHHC17 / RFU, NOM1 / Fold change vs veh, NOM1 / RFU, ARL8B / Fold change vs veh, ARL8B / RFU, ZBTB11 / Fold change vs veh, ZBTB11 / RFU, TAMM41 / Fold change vs veh, TAMM41 / RFU, KIAA1704 /// LOC100996395 / Fold change vs veh, KIAA1704 /// LOC100996395 / RFU, ING1 / Fold change vs veh, ING1 / RFU, TRMT61B / Fold change vs veh, TRMT61B / RFU, FUBP3 / Fold change vs veh, FUBP3 / RFU, TP53 / Fold change vs veh, TP53 / RFU, TNKS2 / Fold change vs veh, TNKS2 / RFU, ZFP14 / Fold change vs veh, ZFP14 / RFU, ACTR2 / Fold change vs veh, ACTR2 / RFU, PPP3R1 / Fold change vs veh, PPP3R1 / RFU, PIK3R1 / Fold change vs veh, PIK3R1 / RFU, HNRNPA1 / Fold change vs veh, HNRNPA1 / RFU, RNF170 / Fold change vs veh, RNF170 / RFU, ZNF28 / Fold change vs veh, ZNF28 / RFU, RNGTT / Fold change vs veh, RNGTT / RFU, OGT / Fold change vs veh, OGT / RFU, BRD1 / Fold change vs veh, BRD1 / RFU, MARS / Fold change vs veh, MARS / RFU, ZNF655 / Fold change vs veh, ZNF655 / RFU, FAHD1 / Fold change vs veh, FAHD1 / RFU, BDP1 / Fold change vs veh, BDP1 / RFU, LRRCC1 / Fold change vs veh, LRRCC1 / RFU, ARID1A / Fold change vs veh, ARID1A / RFU, ZNF146 / Fold change vs veh, ZNF146 / RFU, ZNF330 / Fold change vs veh, ZNF330 / RFU, GPN3 / Fold change vs veh, GPN3 / RFU, C9orf123 / Fold change vs veh, C9orf123 / RFU, N4BP2L2 / Fold change vs veh, N4BP2L2 / RFU, ARFIP1 / Fold change vs veh, ARFIP1 / RFU, FAM179B / Fold change vs veh, FAM179B / RFU, BCL10 / Fold change vs veh, BCL10 / RFU, UHRF1BP1L / Fold change vs veh, UHRF1BP1L / RFU, BET1 / Fold change vs veh, BET1 / RFU, CNOT2 / Fold change vs veh, CNOT2 / RFU, ZNF268 / Fold change vs veh, ZNF268 / Fold change vs veh, ZNF507 / RFU, DGCR2 / Fold change vs veh, DGCR2 / RFU, WDSUB1 / Fold change vs veh, WDSUB1 / Fold change vs veh, HSP90B1 /// MIR3652 / RFU, ADSS / Fold change vs veh, ADSS / RFU, GK / Fold change vs veh, GK / RFU, ZNF148 / Fold change vs veh, ZNF148 / RFU, TAF9 / Fold change vs veh, TAF9 / RFU, SLC1A5 / Fold change vs veh, SLC1A5 / RFU, SLMO2 / Fold change vs veh, SLMO2 / RFU, ABCC4 / Fold change vs veh, ABCC4 / RFU, LOC101060439 /// RAP1B / Fold change vs veh, LOC101060439 /// RAP1B / RFU, RFX7 / Fold change vs veh, RFX7 / RFU, GTPBP10 / Fold change vs veh, GTPBP10 / RFU, CNEP1R1 / Fold change vs veh, CNEP1R1 / RFU, BIVM-ERCC5 /// ERCC5 / Fold change vs veh, BIVM-ERCC5 /// ERCC5 / RFU, ILF3 / Fold change vs veh, ILF3 / RFU 11762660_at / Fold change /veh 11762660_at / RFU VCAN (11757783_s_at) / Fold change /veh VCAN (11757783_s_at) / RFU DDX43 (11728927_at) / Fold change /veh DDX43 (11728927_at) / RFU KRT8 (11758188_x_at) / Fold change /veh KRT8 (11758188_x_at) / RFU NKD1 (11759106_at) / Fold change /veh NKD1 (11759106_at) / RFU SRD5A1 (11742802_a_at) / Fold change /veh SRD5A1 (11742802_a_at) / RFU TPSAB1 /// TPSB2 (11721975_s_at) / Fold change /veh TPSAB1 /// TPSB2 (11721975_s_at) / RFU GSTM3 (11746129_a_at) / Fold change /veh GSTM3 (11746129_a_at) / RFU IL23R (11737362_x_at) / Fold change /veh IL23R (11737362_x_at) / RFU TMEM51 (11727254_a_at) / Fold change /veh TMEM51 (11727254_a_at) / RFU PIWIL2 (11732686_x_at) / Fold change /veh PIWIL2 (11732686_x_at) / RFU ORM1 (11744905_x_at) / Fold change /veh ORM1 (11744905_x_at) / RFU CCDC152 (11743942_at) / Fold change /veh CCDC152 (11743942_at) / RFU ECM1 (11717891_a_at) / Fold change /veh ECM1 (11717891_a_at) / RFU IL23R (11748794_a_at) / Fold change /veh IL23R (11748794_a_at) / RFU TNFAIP8L3 (11732012_x_at) / Fold change /veh TNFAIP8L3 (11732012_x_at) / RFU MBOAT4 (11741988_at) / Fold change /veh MBOAT4 (11741988_at) / RFU 11764193_at / Fold change /veh 11764193_at / RFU TMEM53 (11763286_at) / Fold change /veh TMEM53 (11763286_at) / RFU MAGEB2 (11727129_at) / Fold change /veh MAGEB2 (11727129_at) / RFU TMEM200A (11744735_a_at) / Fold change /veh TMEM200A (11744735_a_at) / RFU CCDC152 (11751479_a_at) / Fold change /veh CCDC152 (11751479_a_at) / RFU FAM211A (11726209_a_at) / Fold change /veh FAM211A (11726209_a_at) / RFU RGS16 (11746705_a_at) / Fold change /veh RGS16 (11746705_a_at) / RFU VCAN (11755009_s_at) / Fold change /veh VCAN (11755009_s_at) / RFU RHOB (11743442_s_at) / Fold change /veh RHOB (11743442_s_at) / RFU RGS16 (11720943_a_at) / Fold change /veh RGS16 (11720943_a_at) / RFU RGS16 (11720944_at) / Fold change /veh RGS16 (11720944_at) / RFU, VPS4B / Fold change vs veh, VPS4B / RFU, CREB1 / Fold change vs veh, CREB1 / RFU, DNAJC13 / Fold change vs veh, DNAJC13 / RFU, GNAQ / Fold change vs veh, GNAQ / RFU, CDK5R1 / Fold change vs veh, CDK5R1 / RFU, ZRANB3 / Fold change vs veh, ZRANB3 / RFU, CUL4A / Fold change vs veh, CUL4A / RFU, CCNY / Fold change vs veh, CCNY / RFU, UFL1 / Fold change vs veh, UFL1 / RFU, COG3 / Fold change vs veh, COG3 / RFU, DIAPH2 / Fold change vs veh, DIAPH2 / RFU, SKA2 / Fold change vs veh, SKA2 / RFU, AFF3 / Fold change vs veh, AFF3 / RFU, LMF1 / Fold change vs veh, LMF1 / RFU, IPO11 / Fold change vs veh, IPO11 / RFU, DFFB / Fold change vs veh, DFFB / RFU, FOXP1 / Fold change vs veh, FOXP1 / RFU, CARD8 / Fold change vs veh, CARD8 / RFU, STRN3 / Fold change vs veh, STRN3 / RFU, ADK / Fold change vs veh, ADK / RFU, RASSF2 / Fold change vs veh, RASSF2 / RFU, WIPF1 / Fold change vs veh, WIPF1 / RFU, LARP1B / Fold change vs veh, LARP1B / RFU, RASA1 / Fold change vs veh, RASA1 / RFU, RB1 / Fold change vs veh, RB1 / RFU, PPFIA1 / Fold change vs veh, PPFIA1 / RFU, MAT2A / Fold change vs veh, MAT2A / RFU, CCT5 / Fold change vs veh, CCT5 / RFU, WDR92 / Fold change vs veh, WDR92 / RFU, CUX1 / Fold change vs veh, CUX1 / RFU, TTC7A / Fold change vs veh, TTC7A / RFU, TMEM135 / Fold change vs veh, TMEM135 / RFU, DEPTOR / Fold change vs veh, DEPTOR / RFU, CPM / Fold change vs veh, CPM / RFU, DNAJB6 / Fold change vs veh, DNAJB6 / RFU, CACNA2D3 / Fold change vs veh, CACNA2D3 / RFU, DTX4 / Fold change vs veh, DTX4 / RFU, TFCP2 / Fold change vs veh, TFCP2 / RFU, GMCL1 /// GMCL1P1 / Fold change vs veh, GMCL1 /// GMCL1P1 / RFU, AEBP2 / Fold change vs veh, AEBP2 / RFU, SNHG1 /// SNORD22 /// SNORD25 /// SNORD26 /// SNORD27 /// SNORD28 /// SNORD29 /// SNORD31 / Fold change vs veh, SNHG1 /// SNORD22 /// SNORD25 /// SNORD26 /// SNORD27 /// SNORD28 /// SNORD29 /// SNORD31 / Fold change (Aza/veh), C12orf56 (ProbeSet 11735607_a_at) / Fold change (ACY-1035/veh), C12orf56 (ProbeSet 11735607_a_at) / Fold change (Aza/veh), FGFR1OP (ProbeSet 11751329_s_at) / Fold change (ACY-1035/veh), FGFR1OP (ProbeSet 11751329_s_at) / Fold change (Aza/veh), VPS36 (ProbeSet 11739960_a_at) / Fold change (ACY-1035/veh), VPS36 (ProbeSet 11739960_a_at) / RFU SYPL1 (11715823_x_at) / Fold change /veh SYPL1 (11715823_x_at) / RFU IGFBP7 (11715501_s_at) / Fold change /veh IGFBP7 (11715501_s_at) / RFU REEP3 (11722064_at) / Fold change /veh REEP3 (11722064_at) / RFU IGLL1 (11728026_x_at) / Fold change /veh IGLL1 (11728026_x_at): dose or concentration left out as unconfirmed. The format is cell-based, human. As to conditions: ProbeSet 11740781_a_at; LIST B.

Consider `Nc1ncn([C@@H]2O[C@H](CO)[C@@H](O)[C@H]2O)c(=O)n1` [azacitidine], for which the “RFU, ILF3” value is 260.31 RFU.

The values are drawn from paper PMC5218480 (PLoS ONE, 2017).
